Where only a bound is given, the exact number is not on record here.

One assay relates to MRC5. Briefly: Cytotoxicity against human MRC5 cells assessed as reduction in cell growth incubated for 48 hrs by CCK8 assay. As to conditions: MRC5, 48 h. It is filed as cell-based. (In general: Tetrazolium assays rely on reduction of a dye to a coloured formazan, in cell work by metabolically active cells.)
In another assay the test system is A549. Briefly: Antiproliferative activity against human A549 cells assessed as inhibition of cell growth incubated for 48 hrs by CCK8 assay. The format is functional, cell-based. As to conditions: A549, 48 h.
For a further assay, the system named is HEK293. Briefly: Antiproliferative activity against HEK293 cells assessed as inhibition of cell growth incubated for 48 hrs by CCK8 assay. The format is functional, cell-based. Particulars: Homo sapiens, HEK293, 48 h.

For the molecule `COc1cccc2c1O[C@@]1(C)[C@H](P(=O)(c3ccccc3)c3ccccc3)N1[C@H]2O` (relative stereo), the IC50 – broadly, the midpoint of a concentration-inhibition curve – with MRC5 is above 50 µM; in the assay with A549, 1.3 µM; with HEK293, above 50 µM.

As to `C[C@@]12Oc3ccc(F)cc3[C@H](O)N1[C@H]2P(=O)(c1ccccc1)c1ccccc1` (relative stereo), the 50% inhibitory concentration (IC50) in the assay with MRC5 is above 50 µM; in the assay with A549, 19.6 µM; in the assay with HEK293, above 50 µM.

For `CC[C@@]12Oc3ccc(C)cc3[C@H](O)N1[C@H]2P(=O)(c1ccccc1)c1ccccc1` (relative stereo), the figures for the concentration for half-maximal inhibition (IC50) in the assay with MRC5, with A549 and in the assay with HEK293 were above 50 µM, 12.9 µM and above 50 µM, respectively.

For `Cc1ccc2c(c1)[C@H](O)N1[C@@H](P(=O)(c3ccccc3)c3ccccc3)[C@]1(C)O2` (relative stereo), the IC50 was above 50 µM in the assay with MRC5, 3.2 µM in the assay with A549 and above 50 µM in the assay with HEK293.

On to `CC(C)OP(=O)(OC(C)C)[C@@H]1N2[C@@H](O)c3ccccc3O[C@@]12C` (relative stereo), for which the figures for the IC50 in the assay on MRC5, with A549 and with HEK293 were above 50 µM, 3 µM and above 50 µM, respectively.

For `CC[C@@]12Oc3c(OC)cccc3[C@H](O)N1[C@H]2P(=O)(c1ccccc1)c1ccccc1` (relative stereo), the IC50 in the assay on MRC5 is above 50 µM; in the assay on A549, 20.7 µM; in the assay with HEK293, above 50 µM.

For `CC[C@@]12Oc3ccccc3[C@](C)(O)N1[C@H]2P(=O)(c1ccccc1)c1ccccc1` (relative stereo), the IC50 in the assay on MRC5 was above 50 µM; with A549 it was 3.2 µM; in the assay on HEK293, above 50 µM.

Turning to `C[C@]1(O)c2ccccc2O[C@@]2(C)[C@H](P(=O)(c3ccccc3)c3ccccc3)N12` (relative stereo), the IC50 with MRC5 is above 50 µM; with A549 it was 21.1 µM; in the assay with HEK293, above 50 µM.

For `CC(C)OP(=O)(OC(C)C)[C@@H]1N2[C@@](C)(O)c3ccccc3O[C@@]12C` (relative stereo), the IC50 in the assay on MRC5 is above 50 µM; with A549, 10.3 µM; in the assay with HEK293 it was above 50 µM.

For `CCOP(=O)(OCC)[C@@H]1N2[C@@H](O)c3ccccc3O[C@@]12C` (relative stereo), the half-maximal inhibitory concentration (IC50) was above 50 µM with MRC5 and 15.8 µM in the assay with A549.

For the molecule `C[C@@]12Oc3ccccc3[C@H](O)N1[C@H]2P(=O)(c1ccccc1)c1ccccc1` (relative stereo), the values for the concentration for half-maximal inhibition (IC50) in the assay on MRC5, with A549 and with HEK293 were above 50 µM, 2.7 µM and above 50 µM, respectively.

As to `CC[C@@]12Oc3ccccc3[C@H](O)N1[C@H]2P(=O)(c1ccccc1)c1ccccc1` (relative stereo), the figures for the IC50 in the assay on MRC5, in the assay with A549 and in the assay with HEK293 were above 50 µM, 10.4 µM and above 50 µM, respectively.

As to `COc1cccc2c1C(=O)c1c(O)c3c(c(O)c1C2=O)C[C@@](O)(C(=O)CO)C[C@@H]3O[C@H]1C[C@H](N)[C@H](O)[C@H](C)O1` [DOXORUBICIN], the IC50 in the assay on MRC5 is above 50 µM; with HEK293, 5.68 µM.

These data come from ChEMBL document CHEMBL4312007, “First synthesis of merged hybrids phosphorylated azirino[2,1-b]benzo[e][1,3]oxazine derivatives as anticancer agents” (Eur J Med Chem, 2020).
